In patent US20240368727A1, “METHOD OF SELECTIVE PRECIPITATION OF METALS USING AMIDE COMPOUNDS” (The University Court of the University of Edinburgh, priority 2021, published 2024):

Experiments:
[1] = Precipitation of Au by L from various aqueous matrices (Table 1); settings: 0.059 g L, 1 hour, room temperature
Description: Conditions: 2 mL Au solution contacted with 0.059 g L for 1 hour, room temperature. Solution filtered and diluted 100× in 2% HNO3 prior to ICP-OES analysis. *HAuCl4 used. **Au^0 added to sulfuric acid solution with a few drops of 30% hydrogen peroxide added to aid dissolution of Au. All solutions were diluted 100× prior to ICP-OES analysis.

[2] = Precipitation of HAuCl4 by L from 2 M HCl (Table 2); settings: 0.01M HAuCl4 in 2M HCl after contact with L
Description: Table 2 below describes precipitation of HAuCl4 by L from 2 M HCl followed by its release from L as HAuCl4 using deionised water. All solutions were diluted 100× prior to ICP-OES analysis.

[3] = Precipitation from 0.01 M mixed-metal solution in HCl (FIG. 2): Au
Description: (§1) Hydrochloric acid solutions (2 M and 6 M) were prepared by dilution of concentrated hydrochloric acid with deionised water. Mixed-metal solutions (0.01 M) were typically prepared by dilution of 0.1 M stock solutions of each individual metal salt solution in 2 or 6 M HCl.
(§2) Solid compound L (0.2 mmol or 0.02 mmol) was added to a vial with a magnetic stir bar and the metal-containing aqueous solution (2 mL) added. The mixture was stirred for 1 hour at room temperature (20° C.) at 500 rpm after which the stir bar was removed and the vial centrifuged. The supernatant was decanted and samples prepared for ICP-OES analysis to measure the uptake of metal by L. Samples were diluted by 100× in 2% nitric acid prior to ICP-OES analysis. This procedure was repeated in triplicate.
(§3) FIG. 2 is a graph showing percentage metal(s) removed by precipitation from a 0.01 M mixed-metal solution in 2 M or 6 M HCl following the addition of either 0.2 mmol of compound L (10-fold excess L relative to metal) or 0.02 mmol of L (equimolar).

[4] = Precipitation from 0.01 M mixed-metal solution in HCl (FIG. 2): other metals; settings: 0.2 mmol solid L (10-fold excess), 0.01 M mixed-metal solution in 2 M HCl
Description: as §1, §2, §3

[5] = Precipitation from 0.01 M mixed-metal solution in HCl (FIG. 2): Fe; settings: excess L, 0.01 M mixed-metal solution in 6 M HCl
Description: as §1, §2, §3

[6] = Precipitation from 0.01 M mixed-metal solution in HCl (FIG. 2): Sn; settings: excess L, 0.01 M mixed-metal solution in 6 M HCl
Description: as §1, §2, §3

[7] = Precipitation from 0.01 M mixed-metal solution in HCl (FIG. 2): Pt; settings: excess L, 0.01 M mixed-metal solution in 6 M HCl
Description: as §1, §2, §3

[8] = Selective stripping with H-tube apparatus (FIG. 3)
Description: Solid L (0.2 mmol) was added to one side of the H-tube with a stir bar. The metal-containing aqueous solution (2 mL) was then added to the solids and the mixture stirred for 1 hour at room temperature at 500 rpm, after which it was passed through the glass frit of the H-tube with the aid of compressed air or N2 gas. The filtrate was collected for ICP-OES analysis to determine metal uptake. The solids were subsequently washed with 2 M HCl (3×2 mL) for 30 mins, with each 2 mL solution being passed through the glass frit of the H-tube. The solids were then washed with ultrapure deionised water (5×2 mL) in the same manner. The use of a H-tube allows for all solids to be retained in the same vessel to minimise any loss of metal due to material transfer. This procedure was repeated in duplicate.
(a) orange bars: Percentage metal removed by precipitation from a 0.01 M mixed-metal solution in 6 M HCl.
(b) green bars: percentage of metal stripped from the precipitate by a 2 M HCl wash.
(c) blue bars: percentage of metal stripped from the precipitate after a subsequent wash with DI water.

[9] = Precipitation from multi-element ICP standard solutions (FIG. 4, FIG. 25): Au; settings: excess compound, 24 hours, RT
Description: (§4) The following ICP multi-element standard solutions were used: Transition metal mix 3 for ICP supplied by Sigma Aldrich comprising 100 mg L^−1 Au, Ir, Os, Pd, Pt, Rh, Ru in 10% hydrochloric acid and ICP multi-element standard solution IV comprising 1000 mg L^−1 Ag, Al, B, Ba, Bi, Ca, Cd, Co, Cr, Cu, Fe, Ga, In, K, Li, Mg, Mn, Na, Ni, Pb, Sr, Tl, Zn in dilute nitric acid.
(§5) Each solution (1 mL) was diluted to 10 mL using either 2 M HCl or 6 M HCl, resulting in solutions of 10 ppm Au, Ir, Os, Pd, Pt, Rh, Ru and 100 mg L^−Al, B, Ba, Bi, Ca, Cd, Co, Cr, Cu, Fe, Ga, In, K, Li, Mg, Mn, Na, Ni, Pb, Sr, Tl, Zn. The solutions were filtered prior to use in precipitation experiments due to the precipitation of silver chloride, which was subsequently excluded from ICP-OES analysis. The precipitation method used for the 0.01 M mixed-metal solutions was followed.
(§6) FIGS. 25(a)-(c) show alternative embodiments of the compounds that were tested. Conditions were: 0.2 mmol of compound contacted with a 2 M or 6 M HCl multi element solution for 24 hours, RT.
(§7) The solution comprised: • 10 mg L^−1 Au, Ir, Os, Pd, Pt, Rh, Ru; and • 100 mg L^−1 Al, B, Ba, Bi, Ca, Cd, Co, Cr, Cu, Fe, Ga, In, K, Li, Mg, Mn, Na, Ni, Pb, Sr, Tl, Zn/

[10] = Precipitation from multi-element ICP standard solutions (FIG. 4, FIG. 25): Tl; settings: excess compound, 24 hours, RT
Description: as §4, §5, §6, §7

[11] = Precipitation from multi-element ICP standard solutions (FIG. 4, FIG. 25): Ga; settings: 6 M HCl multi-element solution (100 mg L^−1 Ga), excess compound, 24 hours, RT
Description: as §4, §5, §6, §7

[12] = Precipitation from multi-element ICP standard solutions (FIG. 4, FIG. 25): Fe; settings: 6 M HCl multi-element solution (100 mg L^−1 Fe), excess compound, 24 hours, RT
Description: as §4, §5, §6, §7

[13] = Precipitation from multi-element ICP standard solutions (FIG. 4): Pt; settings: multi-element ICP standard solutions in HCl, Pt present as Pt(II), excess L
Description: as §4, §5

[14] = Selective precipitation from waste printed circuit boards (Table 3): Au; settings: 20% aqua regia solution from waste printed circuit boards; 0.02 mmol L, 1 hour
Description: (§8) End-of-life printed circuit boards were supplied by Edinburgh School of Chemistry workshop. Gold-tipped sections of the circuit boards (22.85 g) were cut off and soaked in 100 mL aqua regia for 24 hours. This solution was then diluted with deionised water to 250 mL and the metal content analysed by ICP-OES.
(§9) An aliquot of the e-waste solution (2 mL) was stirred with L (0.0059 g, 0.02 mmol, excess with respect to the gold concentration) for 1 hour at room temperature after which the stir bar was removed and the vial centrifuged. The supernatant was decanted and samples prepared for ICP-OES analysis to measure the uptake of metal. Samples were diluted by 1000× and 20× in 2% nitric acid prior to ICP-OES analysis. This procedure was repeated in triplicate.

[15] = Selective precipitation from waste printed circuit boards (Table 3): Cu; settings: 20% aqua regia solution from waste printed circuit boards; 0.02 mmol L, 1 hour
Description: as §8, §9

[16] = Selective precipitation from waste printed circuit boards (Table 3): Ni; settings: 20% aqua regia solution from waste printed circuit boards; 0.02 mmol L, 1 hour
Description: as §8, §9

[17] = Selective precipitation from waste printed circuit boards (Table 3): Pb; settings: 20% aqua regia solution from waste printed circuit boards; 0.02 mmol L, 1 hour
Description: as §8, §9

[18] = Selective precipitation from waste printed circuit boards (Table 3): Sn; settings: 20% aqua regia solution from waste printed circuit boards; 0.02 mmol L, 1 hour
Description: as §8, §9

[19] = Precipitation from 0.01 M mixed-metal solution of precious metals in 6 M HCl (FIG. 10); settings: 0.01 M precious metals in 6 M HCl
Description: FIG. 10 Graph showing percentage metal(s) removed by precipitation from a 0.01 M mixed-metal solution of precious metals in 6 M HCl following the addition of either 0.2 mmol of compound L (10-fold excess L relative to metal) or 0.02 mmol of L (equimolar);
as §1, §2
Referring to FIG. 10, there is shown a graph depicting percentage metal(s) removed by precipitation from a 0.01 M mixed-metal solution of precious metals in 6 M HCl following the addition of either 0.2 mmol of compound L (10-fold excess L relative to metal) or 0.02 mmol of L (equimolar).

[20] = Quantitative NMR solubility experiments; assay type: physicochemical
Description: ^1H NMR spectra were recorded on a Bruker Avance III 400 MHz spectrometer. 2 M and 6 M HCl solutions were diluted from concentrated HCl in D2O. A 0.1 M solution of L in 2 M or 6 M HCl was prepared by adding L (0.0178 g) to an NMR tube along with the relevant HCl/D2O solution (0.55 mL) and 1 M tert-butanol in D2O (0.05 mL) as an internal standard. Any undissolved solids were allowed to settle to the bottom of the NMR tube before acquiring ^1H NMR spectra.
^1H NMR spectra were acquired for 2 M HCl solutions between 300-350 K in 10 K increments and for 6 M HCl solutions between 300-330 K in 10 K increments; attempts to acquire additional spectra beyond 330 K for these latter samples were unsuccessful due to excessive line broadening of the spectra and difficulties with sample locking.

[21] = Gold precipitation from HAuCl4 solutions versus acid concentration and temperature (FIGS. 7-9)

SMILES: CN(CCN(C)C(=O)c1ccccc1)C(=O)c1ccccc1 [L]
- % Precipitated ([1]; 2 mol L^−1 H2SO4 and 2M NaBr, Au^0 with H2O2, initial Au 1930 mg L^−1): 99.5%
- % Precipitated ([1]; 2 mol L^−1 H2SO4 and 2M NaCl, Au^0 with H2O2, initial Au 1940 mg L^−1): 99.4%
- % Precipitated ([1]; 20% Aqua regia, HAuCl4 used, initial Au 1920 mg L^−1): 99.8%
- % Precipitated ([1]; 100% Aqua regia, HAuCl4 used, initial Au 1920 mg L^−1): 99.7%
- % Precipitation [2]: 99.6%
- removal of Au by precipitation ([3]; 0.2 mmol solid L (10-fold excess), 0.01 M each of Au, Al, Cu, Ni, Fe, Zn, Pt, Pd, Sn in 2 M HCl): near quantitative removal of Au
- uptake of Au ([3]; excess L, 0.01 M mixed-metal solution in 6 M HCl): complete uptake
- metal uptake (selectivity) ([3]; stoichiometric L (0.02 mmol), 0.01 M mixed-metal solution in 2 M HCl): gold uptake only
- metal uptake (selectivity) ([3]; stoichiometric L, 0.01 M mixed-metal solution in 6 M HCl): selective gold uptake
- co-precipitation of other metals [4]: < 5%
- uptake of Fe [5]: complete uptake
- uptake of Sn [6]: complete uptake
- uptake of Pt [7]: complete uptake
- metal stripped from the precipitate by a 2 M HCl wash ([8]; L loaded with Au, Fe, Pt and Sn at 6 M HCl, then wash with 2 M HCl): dissolution of Fe, Sn and Pt only, with Au retained on the solids
- metal stripped from the precipitate by subsequent wash with DI water ([8]; isolated solids after the 2 M HCl wash, washed with DI water): releases the Au into solution
- % uptake / precipitation of Au ([9]; 2 M HCl multi-element solution (10 mg L^−1 Au)): 70%
- % uptake / precipitation of Au ([9]; 6 M HCl multi-element solution (10 mg L^−1 Au)): > 99%
- % uptake / precipitation of Tl ([10]; 2 M HCl multi-element solution (100 mg L^−1 Tl)): 10%
- % uptake / precipitation of Tl ([10]; 6 M HCl multi-element solution (100 mg L^−1 Tl)): 95%
- % uptake / precipitation of Ga [11]: > 99%
- % uptake / precipitation of Fe [12]: 70%
- Pt uptake [13]: no Pt uptake
- % metal precipitated, Au [14]: 98.1%
- % metal precipitated, Cu [15]: 0%
- % metal precipitated, Ni [16]: 0%
- % metal precipitated, Pb [17]: 0%
- % metal precipitated, Sn [18]: 0%
- metal(s) removed by precipitation (selectivity) ([19]; equimolar L (0.02 mmol)): selective precipitation of gold over other precious metals
- metal(s) removed by precipitation (selectivity) ([19]; excess L (0.2 mmol, 10-fold)): selective co-precipitation of gold and platinum
- concentration of dissolved L ([20]; 2 M HCl, heated to 350 K): 100 µM
- Dissolution of L (concentration of dissolved L) ([20]; 2 M HCl, quantitative 1H NMR): 0.02 mM
- concentration of dissolved L ([20]; 6 M HCl, 300 K): 320 µM
- increase in dissolved L on increasing HCl from 2 M to 6 M ([20]; 300 K): 16 fold
- quantity of [HL][AuCl4] precipitated over 5 minutes on raising temperature ([21]; 2 M HCl, from 20 to 40° C. and from 40 to 80° C.): doubles
- precipitation of [HL][AuCl4] on addition of HAuCl4 ([21]; solution of L in 12 M HCl): rapid and wholesale precipitation
